Read-outs that look alike come from different tables or passages of the source. Some results are limits rather than exact numbers.

Experiment [1] concerns the target T1, human MERTK cytoplasmic domain (Homo sapiens, UniProt Q12866).
T1 construct: human MERTK cytoplasmic domain (Carna Biosciences 08-108); purchased Carna Biosciences 08-108
As to the kind of experiment: biochemical. The note with it: 30 uM ATP; read-out: Assay 1a Mer IC50 30 uM ATP. As for the experimental part: Assay 1a—MERTK HTRF KinEASE-TK Assay
The enzymatic reaction was carried out for 30 min at room temperature. 10 μL TK Antibody-Cryptate/Streptavidin-XL665 (Cisbio 610SAXLG) was then added for 60 min, including EDTA containing detection buffer (Cisbio 62SDBRDF) to stop the reaction.

Experiment [2] addresses T2, human AXL cytoplasmic domain (Homo sapiens, UniProt P30530).
T2 construct: human AXL cytoplasmic domain (Thermo Fisher A31515); purchased Thermo Fisher A31515
T2 sequence (P30530 473-894 limits assumed): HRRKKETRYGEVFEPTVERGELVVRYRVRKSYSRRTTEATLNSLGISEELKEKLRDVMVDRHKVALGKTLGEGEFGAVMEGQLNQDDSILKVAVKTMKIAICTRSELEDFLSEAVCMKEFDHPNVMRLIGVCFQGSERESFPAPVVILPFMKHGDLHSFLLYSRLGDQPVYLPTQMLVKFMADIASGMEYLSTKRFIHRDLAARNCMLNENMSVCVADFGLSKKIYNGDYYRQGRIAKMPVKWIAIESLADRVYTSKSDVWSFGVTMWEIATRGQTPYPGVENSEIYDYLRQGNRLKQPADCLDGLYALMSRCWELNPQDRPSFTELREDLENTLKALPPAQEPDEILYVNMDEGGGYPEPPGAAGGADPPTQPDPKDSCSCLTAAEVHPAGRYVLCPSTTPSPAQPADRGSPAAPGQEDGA
As to the kind of experiment: Assay 1b AXL HTRF KinEASE-TK assay. The format is biochemical. Put shortly:
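Recombinant cytoplasmic domain (5 nM) in kinase buffer with 5 mM MgCl2, 1 mM MnCl2, 1 mM DTT, 50 nM SEB plus test compounds; reaction 30 min at room temperature. EDTA-containing detection with TK antibody-cryptate/streptavidin-XL665 for 60 min; HTRF 665/620 ratio read. IC50 from 4-parameter logistic fit with variable slope.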

The target in experiment [3] is T3, Ba/F3 Pro B-cell line expressing TEL-human MERTK fusion domain (Homo sapiens, UniProt Q12866).
T3 sequence (Q12866 587-858 limits assumed): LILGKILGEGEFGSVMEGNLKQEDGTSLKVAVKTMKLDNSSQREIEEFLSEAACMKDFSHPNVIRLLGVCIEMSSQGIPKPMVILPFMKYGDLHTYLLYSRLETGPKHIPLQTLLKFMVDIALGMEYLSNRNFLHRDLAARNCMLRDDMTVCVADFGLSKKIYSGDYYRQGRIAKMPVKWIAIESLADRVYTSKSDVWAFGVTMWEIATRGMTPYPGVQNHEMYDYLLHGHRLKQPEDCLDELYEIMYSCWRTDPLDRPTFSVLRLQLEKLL
Format: cell-based. The conditions noted are these: cell survival, 48 h, CellTiter-Glo; read-out: TEL-MERTK Ba/F3 IC50. Put shortly:
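Ba/F3 cells dependent on BCR-AXL or TEL-MERTK fusion kinase (IL3-free; IL3 only for control lines) treated with compound 48 h at 37 °C, 0.25% DMSO. Viability by CellTiter-Glo luminescence; IC50 for half-maximal inhibition of survival from 4-parameter variable-slope fit.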
A general note: ATP-based viability assays read luminescence as a measure of living cells.

Experiment [4] deals with T4, Ba/F3 Pro B-cell line expressing BCR-human AXL kinase domain fusion protein (Homo sapiens, UniProt P30530).
T4 construct: P11274 (Breakpoint cluster region protein)
T4 sequence (P30530 536-807 limits assumed): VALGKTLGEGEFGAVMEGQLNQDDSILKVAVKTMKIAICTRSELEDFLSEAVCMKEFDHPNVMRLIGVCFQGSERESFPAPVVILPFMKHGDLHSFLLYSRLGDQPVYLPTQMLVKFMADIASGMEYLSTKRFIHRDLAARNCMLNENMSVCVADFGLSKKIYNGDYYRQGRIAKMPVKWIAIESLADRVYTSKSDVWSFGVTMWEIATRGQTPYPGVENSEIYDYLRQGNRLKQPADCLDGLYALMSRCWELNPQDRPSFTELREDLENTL
In words: Assay 5 Ba/F3 cell survival assay, BCR-Axl. The note with it: read-out: BCR-Axl Ba/F3 IC50, 48 h, CellTiter-Glo. The format is cell-based. As for the experimental part: Assay 5—Ba/F3 Cell Survival Assays.
The inhibitory potencies of compounds were assessed in a Ba/F3 cell survival assay, using the Ba/F3 Pro B-cell line, recombinantly expressing a BCR-human AXL kinase domain fusion protein (pACD320/AXL, Advanced Cellular Dynamics Inc), TEL-human MERTK fusion domain (pACD1000/MERTK, Advanced Cellular Dynamics Inc), TEL-human Tyro3 fusion domain (pACD1000/TYRO3, Advanced Cellular Dynamics Inc), or control TEL-none (ACD320, Advanced Cellular Dynamics Inc) BRC-none constructs (ACD1000, Advanced Cellular Dynamics Inc). 10 ng/mL recombinant murine IL3 (R&D, 403-ML-010) was included in the media when propagating negative control TEL-none or BCR-none lines only. […] The final assay DMSO concentration was 0.25%. Compound incubations were conducted for 48 h at 37° C./5% CO2, after which cell plate was equilibrated at room temperature for 20 minutes prior to assessing viability. 15 μl of Promega CellTiter-Glo reagent (G7572) was added to each well for 2 min on an orbital shaker to induce cell lysis.
The plate was then equilibrated for 5 min at room temperature and luminescence read on a BMG Pherastar FSX using the LUM plus optic module. […] Competition curves were then fit to a 4 parameter logistic equation including a variable slope factor to determine the IC50 (compound concentration causing a half-maximal inhibition of cell survival).

Experiment [5] concerns the target T5, Ba/F3 Pro B-cell line expressing TEL-human Tyro3 fusion domain (Homo sapiens, UniProt Q06418).
T5 sequence (Q06418 518-790 limits assumed): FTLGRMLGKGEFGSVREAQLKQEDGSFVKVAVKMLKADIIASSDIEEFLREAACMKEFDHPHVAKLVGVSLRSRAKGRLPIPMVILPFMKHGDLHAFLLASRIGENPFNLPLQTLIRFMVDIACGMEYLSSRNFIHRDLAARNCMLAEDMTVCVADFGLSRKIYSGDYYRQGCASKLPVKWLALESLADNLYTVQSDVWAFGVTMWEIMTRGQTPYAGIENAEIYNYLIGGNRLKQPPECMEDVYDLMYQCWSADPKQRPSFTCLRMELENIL
The format is cell-based. The note with it: cell survival, 48 h, CellTiter-Glo.

T1 sequence (Q12866 527-999): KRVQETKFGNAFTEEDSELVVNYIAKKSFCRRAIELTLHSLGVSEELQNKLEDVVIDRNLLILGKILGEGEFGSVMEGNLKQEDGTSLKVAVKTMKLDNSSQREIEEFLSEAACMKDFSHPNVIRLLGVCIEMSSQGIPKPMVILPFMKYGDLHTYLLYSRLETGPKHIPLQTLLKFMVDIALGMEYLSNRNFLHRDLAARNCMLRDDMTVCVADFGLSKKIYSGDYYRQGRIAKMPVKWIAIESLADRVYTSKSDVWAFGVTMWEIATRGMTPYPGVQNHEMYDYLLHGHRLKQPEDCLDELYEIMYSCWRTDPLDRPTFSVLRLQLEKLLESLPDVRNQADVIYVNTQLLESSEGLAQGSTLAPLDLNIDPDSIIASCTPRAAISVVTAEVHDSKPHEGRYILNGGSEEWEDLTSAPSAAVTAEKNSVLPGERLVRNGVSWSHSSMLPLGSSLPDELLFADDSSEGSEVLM

Take `CN1CCC(NC(=O)c2cc3c(Oc4ccc(NC(=O)c5cccn(-c6ccc(F)cc6)c5=O)cc4)ccnc3cn2)CC1` [Example 8.1, 4-[4-[[1-(4-fluorophenyl)-2-oxo-pyridine-3-carbonyl]amino]phenoxy]-N-(1-methyl-4-piperidyl)-1,7-naphthyridine-6-carboxamide]: the IC50 in experiment [1] was determined as 4 nM; in experiment [2] it was 28 nM; in experiment [3], 17 nM; in experiment [4] it was 7 nM; in experiment [5], 48 nM.

Consider `CC(C)n1cc(C(=O)Nc2ccc(Oc3ccnc4cnc(C(=O)NC5CCN(C(=O)OC(C)(C)C)CC5)cc34)cn2)c(=O)n(-c2ccc(F)cc2)c1=O` [Example 27.1, tert-butyl 4-[[4-[[6-[[3-(4-fluorophenyl)-1-isopropyl-2,4-dioxo-pyrimidine-5-carbonyl]amino]-3-pyridyl]oxy]-1,7-naphthyridine-6-carbonyl]amino]piperidine-1-carboxylate], for which the IC50 in experiment [1] is 11 nM; in experiment [2], 3 nM; in experiment [3], 67 nM; in experiment [4] it was 15 nM; in experiment [5], 881 nM.

Take `CC(C)n1cc(C(=O)Nc2ccc(Oc3ccnc4cnc(C(=O)NC5CC6CCC(C5)N6C)cc34)cn2)c(=O)n(-c2ccc(F)cc2)c1=O` (stereo not shown) [Example 27.2, 4-[[6-[[3-(4-fluorophenyl)-1-isopropyl-2,4-dioxo-pyrimidine-5-carbonyl]amino]-3-pyridyl]oxy]-N-(8-methyl-8-azabicyclo[3.2.1]octan-3-yl)-1,7-naphthyridine-6-carboxamide]: the IC50 in experiment [1] worked out at 17 nM; in experiment [2] (# 1 μM ATP used in assay, read-out: Assay 1b Axl IC50) it was 4 nM; in experiment [3], 49 nM; in experiment [4] it was 13 nM; in experiment [5], 376 nM.

Take `CC(C)n1cc(C(=O)Nc2ccc(Oc3ccnc4cnc(C(=O)NC5CCN(C)CC5)cc34)cc2)c(=O)n(-c2cc(F)cc(F)c2)c1=O` [Example 9.1, 4-[4-[[3-(3,5-difluorophenyl)-1-isopropyl-2,4-dioxo-pyrimidine-5-carbonyl]amino]phenoxy]-N-(1-methyl-4-piperidyl)-1,7-naphthyridine-6-carboxamide]: the IC50 in experiment [1] is 12 nM; in experiment [2], 13 nM; in experiment [3], more than 2500 nM; in experiment [4] it was 25 nM; in experiment [5], more than 2500 nM.

With `CC(C)(C)OC(=O)N1CCC(c2cc3c(Oc4ccc(NC(=O)c5cccn(-c6ccc(F)cc6)c5=O)nc4)ccnc3cn2)CC1` [Example 16.4, tert-butyl 4-[4-[[6-[[1-(4-fluorophenyl)-2-oxo-pyridine-3-carbonyl]amino]-3-pyridyl]oxy]-1,7-naphthyridin-6-yl]piperidine-1-carboxylate], the IC50 in experiment [1] was 13 nM; in experiment [2], 282 nM; in experiment [3] it was 195 nM; in experiment [4], 154 nM; in experiment [5] it was more than 2500 nM.

As to `CC(C)n1cc(C(=O)Nc2ccc(Oc3ccnc4cnc(C(=O)NCCN(C)C)cc34)cn2)c(=O)n(-c2ccc(F)cc2)c1=O` [Example 27.3, N-[2-(dimethylamino)ethyl]-4-[[6-[[3-(4-fluorophenyl)-1-isopropyl-2,4-dioxo-pyrimidine-5-carbonyl]amino]-3-pyridyl]oxy]-1,7-naphthyridine-6-carboxamide], the IC50 was 31 nM in experiment [1]; 6 nM in experiment [2]; 44 nM in experiment [3]; 21 nM in experiment [4]; 631 nM in experiment [5].

`Cc1cc(NC(=O)c2cccn(-c3ccccc3)c2=O)ccc1Oc1ccnc2cnc(C(=O)NC3CCN(C)CC3)cc12` [Example 34, 4-[2-Methyl-4-[(2-oxo-1-phenyl-pyridine-3-carbonyl)amino]phenoxy]-N-(1-methyl-4-piperidyl)-1,7-naphthyridine-6-carboxamide]: the IC50 in experiment [1] was 43 nM; in experiment [2], 296 nM; in experiment [3] it was 144 nM; in experiment [4], 73 nM; in experiment [5], 128 nM.

Take `CN1CCC(c2cc3c(Oc4ccc(NC(=O)c5cccn(-c6ccc(F)cc6)c5=O)cc4)ccnc3cn2)CC1` [Example 17, 1-(4-fluorophenyl)-N-[4-[[6-(1-methyl-4-piperidyl)-1,7-naphthyridin-4-yl]oxy]phenyl]-2-oxo-pyridine-3-carboxamide]: the IC50 in experiment [1] came to 4 nM; in experiment [2], 240 nM; in experiment [3] it was 25 nM; in experiment [4] it was 31 nM; in experiment [5], 186 nM.

For the compound `O=C(Nc1ccc(Oc2ccnc3cnc(C4CCNC4)cc23)cn1)c1cccn(-c2ccc(F)cc2)c1=O` (stereo not shown) [Example 21, 1-(4-fluorophenyl)-2-oxo-N-[5-[(6-pyrrolidin-3-yl-1,7-naphthyridin-4-yl)oxy]-2-pyridyl]pyridine-3-carboxamide], the IC50 in experiment [1] was 57 nM; in experiment [2], 247 nM; in experiment [3] it was 217 nM; in experiment [4], 203 nM; in experiment [5], 2390 nM.

As for `O=C(Nc1ccc(Oc2ccnc3cnc(C4CCNCC4)cc23)cn1)c1cccn(-c2ccc(F)cc2)c1=O` [Example 21.1, 1-(4-fluorophenyl)-2-oxo-N-[5-[[6-(4-piperidyl)-1,7-naphthyridin-4-yl]oxy]-2-pyridyl]pyridine-3-carboxamide], the IC50 in experiment [1] was 9 nM; in experiment [2], 46 nM; in experiment [3] it was 35 nM; in experiment [4], 46 nM; in experiment [5] it was 861 nM.

As to `O=C(Nc1ccc(Oc2ccnc3cnc(C4=CCN(C5COC5)CC4)cc23)cn1)c1cccn(-c2ccc(F)cc2)c1=O` [Example 16.2, 1-(4-fluorophenyl)-N-[5-[[6-[1-(oxetan-3-yl)-3,6-dihydro-2H-pyridin-4-yl]-1,7-naphthyridin-4-yl]oxy]-2-pyridyl]-2-oxo-pyridine-3-carboxamide], the IC50 is 3 nM in experiment [1]; 18 nM in experiment [2]; 14 nM in experiment [3]; 15 nM in experiment [4]; 144 nM in experiment [5].

Source of the values: patent US20230203029A1 (priority 2020, published 2023).
